# Tested on: D2/3R
# Assay: Kinetic analysis of PET data (1TCM, 2TCM, Logan, SRTM);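 for 2TCM BPND change relative to control: Raclopride 1 mg/kg intravenous pretreatment versus saline controls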;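 for SRTM BPND change relative to control: Raclopride 1 mg/kg intravenous pretreatment versus saline controls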
# Format: in vivo, Sprague-Dawley rats
# Set-up: key to SRTM BPND / 1TCM BPND / 2TCM BPND (VT-based): BPND = VT(target)/VT(cerebellum) − 1 (or SRTM, cerebellum reference); SRTM BPND change relative to control / 1TCM BPND change relative to control / 2TCM BPND change relative to control / Logan BPND change relative to control: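 Raclopride 1 mg/kg intravenous pretreatment versus saline controls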; 1TCM VT / 2TCM VT: unit not given here
# Method: Kinetic analysis is described using the nomenclature proposed by Innis et al.. ROI TACs of [^18F]FEt-AMC13 were analyzed with one-tissue and two-tissue compartmental models of reversible binding (1TCM and 2TCM, respectively) to obtain individual rate constants. From these, the regional distribution volumes (VT) were calculated and compared to those obtained with Logan graphical analysis. Binding potentials (BPND) were calculated from the distribution ratios as VT (target) / VT (cerebellum) – 1, or estimated with the simplified reference tissue model (SRTM) using the cerebellum as reference region.
# Metabolite-corrected plasma-derived arterial input function and whole blood time-activity curve were used for Logan, 1TCM, and 2TCM analyses. Fractional cerebral blood volume was set to 3.6 % [27]. For one rat in the raclopride-treated group, no input curves could be obtained; therefore, its PET data were only analyzed with SRTM.
# Degree of D2/3R-specific binding of the tracers was characterized by BPND (as given above) or the specific binding ratio (SBR) given as target region activity/cerebellar activity - 1. Both were calculated under control conditions and in response to the raclopride challenge.
# [1] = Hypothalamus, raclopride, listed as [18F]FEt-AMC13
# [2] = Olfactory bulbs, raclopride, listed as [18F]FEt-AMC13
smiles,measurement,setting,value
Oc1ccc2c(c1)O[C@@H](CNCc1ccc(OCC[18F])cc1)CC2 [[^18F]FEt-AMC13],2TCM k4,"Hypothalamus, control rat D",0.09 ± 0.01 min⁻¹
same,1TCM BPND,"Hypothalamus, raclopride",0.22±0.04
same,1TCM BPND change relative to control,"Hypothalamus, raclopride",-14%
same,1TCM VT,"Hypothalamus, raclopride",5.38±0.38
same,2TCM BPND (VT-based),"Hypothalamus, raclopride",0.18 ± 0.06
same,2TCM BPND change relative to control,"Hypothalamus, raclopride",−19%
same,2TCM VT,"Hypothalamus, raclopride",5.83±0.34
same,Logan BPND,"Hypothalamus, raclopride",0.16±0.04
same,Logan BPND change relative to control,"Hypothalamus, raclopride",-25%
same,Logan VT,"Hypothalamus, raclopride",5.76±0.26
same,SRTM BPND,"Hypothalamus, raclopride",0.16 ± 0.04
same,SRTM BPND change relative to control,"Hypothalamus, raclopride",−23%
same,2TCM BPND (VT-based),[1],0.18±0.06
same,2TCM BPND change relative to control,[1],-19%
same,SRTM BPND,[1],0.16±0.04
same,SRTM BPND change relative to control,[1],–23%
same,1TCM BPND,"Olfactory bulbs, control",0.07±0.16
same,1TCM VT,"Olfactory bulbs, control",4.99±0.62
same,2TCM BPND (VT-based),"Olfactory bulbs, control",0.08 ± 0.13
same,2TCM VT,"Olfactory bulbs, control",5.45±0.52
same,Logan BPND,"Olfactory bulbs, control",0.12±0.12
same,Logan VT,"Olfactory bulbs, control",5.64±0.57
same,SRTM BPND,"Olfactory bulbs, control",0.10 ± 0.13
same,1TCM K1,"Olfactory bulbs, control rat A",0.55 ± 0.05 mL/g/min
same,1TCM k2,"Olfactory bulbs, control rat A",0.12 ± 0.02 min⁻¹
same,2TCM K1,"Olfactory bulbs, control rat A",3.58 ± 1.65 mL/g/min
same,2TCM k2,"Olfactory bulbs, control rat A",9.75 ± 3.75 min⁻¹
same,2TCM k3,"Olfactory bulbs, control rat A",1.20 ± 2.96 min⁻¹
same,2TCM k4,"Olfactory bulbs, control rat A",0.09 ± 7.03 min⁻¹
same,1TCM K1,"Olfactory bulbs, control rat B",0.49 ± 0.02 mL/g/min
same,1TCM k2,"Olfactory bulbs, control rat B",0.08 ± 0.01 min⁻¹
same,2TCM K1,"Olfactory bulbs, control rat B",0.63 ± 0.07 mL/g/min
same,2TCM k2,"Olfactory bulbs, control rat B",0.47 ± 0.34 min⁻¹
same,2TCM k3,"Olfactory bulbs, control rat B",0.69 ± 0.56 min⁻¹
same,2TCM k4,"Olfactory bulbs, control rat B",0.20 ± 0.04 min⁻¹
same,1TCM K1,"Olfactory bulbs, control rat C",0.44 ± 0.01 mL/g/min
same,1TCM k2,"Olfactory bulbs, control rat C",0.09 ± 0.005 min⁻¹
same,2TCM K1,"Olfactory bulbs, control rat C",0.59 ± 0.10 mL/g/min
same,2TCM k2,"Olfactory bulbs, control rat C",0.68 ± 0.93 min⁻¹
same,2TCM k3,"Olfactory bulbs, control rat C",1.07 ± 3.21 min⁻¹
same,2TCM k4,"Olfactory bulbs, control rat C",0.23 ± 3.75 min⁻¹
same,1TCM K1,"Olfactory bulbs, control rat D",0.50 ± 0.03 mL/g/min
same,1TCM k2,"Olfactory bulbs, control rat D",0.10 ± 0.01 min⁻¹
same,2TCM K1,"Olfactory bulbs, control rat D",1.08 ± 0.20 mL/g/min
same,2TCM k2,"Olfactory bulbs, control rat D",1.82 ± 0.90 min⁻¹
same,2TCM k3,"Olfactory bulbs, control rat D",0.92 ± 0.31 min⁻¹
same,2TCM k4,"Olfactory bulbs, control rat D",0.11 ± 0.01 min⁻¹
same,1TCM BPND,"Olfactory bulbs, raclopride",-0.02±0.03
same,1TCM BPND change relative to control,"Olfactory bulbs, raclopride",-127%
same,1TCM VT,"Olfactory bulbs, raclopride",4.36±0.55
same,2TCM BPND (VT-based),"Olfactory bulbs, raclopride",0.01 ± 0.04
same,2TCM BPND change relative to control,"Olfactory bulbs, raclopride",−88%
same,2TCM VT,"Olfactory bulbs, raclopride",5.02±0.61
same,Logan BPND,"Olfactory bulbs, raclopride",0.03±0.03
same,Logan BPND change relative to control,"Olfactory bulbs, raclopride",-74%
same,Logan VT,"Olfactory bulbs, raclopride",5.14±0.43
same,SRTM BPND,"Olfactory bulbs, raclopride",0.11 ± 0.05
same,SRTM BPND change relative to control,"Olfactory bulbs, raclopride",+10%
same,2TCM BPND (VT-based),[2],0.01±0.04
same,2TCM BPND change relative to control,[2],-88%
same,SRTM BPND,[2],0.11±0.05
same,1TCM BPND,"Pituitary, control",0.32±0.05
same,1TCM VT,"Pituitary, control",6.16±0.35
same,2TCM BPND (VT-based),"Pituitary, control",0.36 ± 0.07
same,2TCM VT,"Pituitary, control",6.89±0.32
same,Logan BPND,"Pituitary, control",0.42±0.05
same,Logan VT,"Pituitary, control",7.15±0.49
same,SRTM BPND,"Pituitary, control",0.71 ± 0.32
same,1TCM K1,"Pituitary, control rat A",0.52 ± 0.05 mL/g/min
same,1TCM k2,"Pituitary, control rat A",0.08 ± 0.02 min⁻¹
same,2TCM K1,"Pituitary, control rat A",6.16 ± 6.57 mL/g/min
same,2TCM k2,"Pituitary, control rat A",16.8 ± 16.5 min⁻¹
same,2TCM k3,"Pituitary, control rat A",1.11 ± 15.04 min⁻¹
same,2TCM k4,"Pituitary, control rat A",0.06 ± 22.82 min⁻¹
same,1TCM K1,"Pituitary, control rat B",0.63 ± 0.04 mL/g/min
same,1TCM k2,"Pituitary, control rat B",0.10 ± 0.01 min⁻¹
same,2TCM K1,"Pituitary, control rat B",1.23 ± 0.31 mL/g/min
same,2TCM k2,"Pituitary, control rat B",1.62 ± 0.42 min⁻¹
same,2TCM k3,"Pituitary, control rat B",0.99 ± 1.42 min⁻¹
same,2TCM k4,"Pituitary, control rat B",0.12 ± 2.70 min⁻¹
same,1TCM K1,"Pituitary, control rat C",0.52 ± 0.02 mL/g/min
same,1TCM k2,"Pituitary, control rat C",0.08 ± 0.01 min⁻¹
same,2TCM K1,"Pituitary, control rat C",0.97 ± 0.34 mL/g/min
same,2TCM k2,"Pituitary, control rat C",1.54 ± 0.73 min⁻¹
same,2TCM k3,"Pituitary, control rat C",1.23 ± 2.61 min⁻¹
same,2TCM k4,"Pituitary, control rat C",0.13 ± 4.28 min⁻¹
same,1TCM K1,"Pituitary, control rat D",0.67 ± 0.05 mL/g/min
same,1TCM k2,"Pituitary, control rat D",0.12 ± 0.02 min⁻¹
same,2TCM K1,"Pituitary, control rat D",1.38 ± 0.24 mL/g/min
same,2TCM k2,"Pituitary, control rat D",1.48 ± 0.20 min⁻¹
same,2TCM k3,"Pituitary, control rat D",0.69 ± 0.58 min⁻¹
same,2TCM k4,"Pituitary, control rat D",0.11 ± 1.34 min⁻¹
same,1TCM BPND,"Pituitary, raclopride",0.18±0.05
same,1TCM BPND change relative to control,"Pituitary, raclopride",-38%
same,1TCM VT,"Pituitary, raclopride",5.33±0.88
same,2TCM BPND change relative to control,"Pituitary, raclopride",−23%
same,2TCM VT,"Pituitary, raclopride",6.34±0.82
same,Logan BPND change relative to control,"Pituitary, raclopride",-26%
same,Logan VT,"Pituitary, raclopride",6.53±0.44
